Results as given in patent publication US20190365717A1, “TREATING PATHOLOGICAL CONDITIONS BY DIRECT AND INDIRECT TARGETING OF SIRPA-CD47 INTERACTION” (STICHTING HET NEDERLANDS KANKER INSTITUUT-ANTONI VAN …, priority 2017, published 2019).
One block for each molecule: values may come before it.

Experiments:
[1] = system: HAP1, RKO, A375, A549 and DLD1 cells; settings: PBD150 1000 microM, 72 hours, medium refreshed every 24 hours
Method: (§1) Surface levels of CD47 were assessed by performing immunohistochemical staining cells with fluorochrome labelled antibodies directed against CD47 (clones CC2C6, 2D3, B6H12., see Table 1) at a dilution of 1:50 in PBS containing 0.5% w/v BSA (Sigma) and 0.2% w/v sodium azide (Sigma) (“FACS buffer”) for 30 minutes, at 4° C., protected from light. SIRPα binding to CD47 was assessed by incubating cells with recombinant extracellular domain of human SIRPα fused to human IgG ((SIRPα-Fc); Recombinant Human SIRP alpha/CD172a Fc Chimera Protein see Table 1) at a dilution of 1:50 in FACS buffer for 30 minutes, at 4° C., protected from light. After 1 wash with FACS buffer to remove unbound SIRPα-Fc, cells were immunostained with a fluorochrome labelled antibody against human IgG (HP6017, see Table 1) for 30 minutes, at 4° C., protected from light. After 2 washes with FACS buffer to remove unbound antibody, immunohistochemical staining intensity or binding intensity was analyzed on an LSRII (BD Bioscience).
Next, HAP1, RKO, A375, A549 and DLD1 cells were treated for 72 hours with PBD150 (1000 microM) or vehicle and medium was refreshed every 24 hours.

[2] = biological target: human QPCTL (Homo sapiens, UniProt Q9NXS2); settings: cited from earlier work
[3] = system: HAP1 cells; test: Small molecule inhibition of glutaminyl cyclase: anti-CD47 clone CC2C6 binding, flow cytometry; assay type: cell-based, human
Method: as §1

[4] = Phase 1 study with 200 healthy young and elderly volunteers; cited from earlier work
[5] = system: QPCT and QPCTL; settings: Phase 1 study with 200 healthy young and elderly volunteers; cited from earlier work
[6] = system: Ba/F3-Her2 cells; test: ADCC of 51Cr-labeled Ba/F3-Her2 target cells by mouse effector cells; assay type: cell-based; settings: murine immune cells isolated from whole blood as effector cells, anti-Her2 IgA1
Method: (§2) Briefly, 1×10^6 target cells were labelled with 100 μCi (3.7 MBq) ^51Cr for 2 h. After extensive washing, cell numbers were adjusted to 1×10^6/mL. The polymorphonuclear leukocyte (PMN) fraction from peripheral blood of healthy donors (UMC Utrecht, Utrecht) was isolated by Ficoll/Histopaque separation (GE Healthcare; Sigma-Aldrich). Effector cells and target cells were added to round-bottom microtiter plates (Corning Incorporated) (E:T ratio=40:1), in the presence of the indicated concentration of a Her2 antibody. After 4 h incubation at 37° C., ^51Cr release was measured. Percentage specific lysis was calculated using the following formula: ((experimental cpm—basal cpm)/(maximal cpm—basal cpm))×100, with maximal lysis determined in the presence of 3% triton and basal lysis determined in the absence of antibody and effector cells. […] All experiments were performed in triplicate.
In brief, to obtain mouse effector cells, blood was collected from pegylated granulocyte colony-stimulating factor (G-CSF)-stimulated human FcaRl transgenic Balb/c mice from the retro-orbital plexus into Li-heparin tubes. Erythrocytes were lysed by incubation in water for […], and total leukocytes were resuspended in medium (half the volume of the original blood volume). 50 μL of total leukocytes, containing ˜70% PMNs, were added per well.

[7] = system: QPCTL-deficient lung cancer (A549) and epidermoid carcinoma (A431) cells; test: SEN177 treatment of QPCTL-deficient cells, SIRPα binding by flow cytometry; assay type: cell-based, human
Method: (§3) After indicated antibody stainings, cells were washed with FACS buffer to remove unbound antibody and DAPI was added to allow dead cell exclusion and samples were analyzed on an LSRII or LSRFortessa (BD Bioscience).
(§4) DMSO or inhibitor was refreshed every day and after four days, cells were analyzed by flow cytometry.

[8] = system: Ba/F3-Her2 cells; test: ADCC of 51Cr-labeled Ba/F3-Her2 target cells by human effector cells; assay type: cell-based, murine; settings: human neutrophils, with anti-Her2, 10 μM SEN177, 4 h 51Cr-release
Method: as §2

[9] = system: A375, A431, Raji, A549, DLD1, HAP1, RKO and SKBR3 cells; test: SEN177 and PQ912 treatment, cell surface binding of hSIRPα-Fc and anti-CD47 antibodies, flow cytometry; assay type: cell-based, human; parameters: dose or concentration left out as unconfirmed; settings: refreshed every day, four days
Method: as §3, §4

[10] = system: B16F10 melanoma cells and Ba/F3-Her2 pro-B cells; test: SEN177 treatment of murine cells, mSIRPα-Fc and αmCD47-MIAP301 binding, flow cytometry; assay type: cell-based; settings: SEN177, both cell lines
Method: as §3, §4

[11] = system: pyroglutamate-modified CD47 in A375 melanoma cells; test: Analysis of αCD47-CC2C6 / αCD47-B6H12 immunoprecipitates of HA-tagged CD47; assay type: cell-based, human; settings: untreated versus SEN177-treated cells, 10 μM SEN177 for 16 h
Method: At the day of analysis, cells were starved in methionine- and cysteine-free medium for 1 h at 37° C. Subsequently, cells were pulse-labelled with 0.75 mCi/600 μL [^35S]Cys/[^35S]Met (PerkinElmer) for the indicated time period. Cells were washed with PBS to remove residual [^35S]Cys/[^35S]Met and then cultured in regular medium with 1 mM ‘cold’ methionine and cysteine for the indicated time period. Cells were lysed and [^35S]Cys/[^35S] incorporation was measured via TCA precipitation of aliquots of lysates on 3 MM Whatman paper and counting in a Perkin Elmer LSC 2800 ultima gold scintillation counter. Next, for pre-clearing and IP purposes, purified mouse IgG1 kappa isotype control (Biolegend, 400102), anti-human CD47 antibody B6H12.2 (Novus, NBP2-31106), and purified anti-human CD47 antibody CC2C6 (Biolegend, 323102) was bound to protein-G-coated Dynabeads (ThermoFisher Scientific) according to manufacturer's instructions. […] Next, immunoprecipitates were heated at 50° C. for 10 min with 2× Laemmli buffer and analyzed using a Novex NuPAGE Gel Electrophoresis System (Thermo Fisher Scientific). Gels were treated with 1 M Na salicylate pH 5.6 before drying and then analyzed on Fujifilm BAS-MP phosphor imager screens 4° C. Screens were analyzed on a lasser scanner Typhoon FLA 9500.

[12] = system: short-term cultures of melanoma xenografts; test: SEN177 treatment of short-term melanoma PDX cell lines, FACS binding; assay type: cell-based, human; settings: 10 μM SEN177 for 4 days, six cultures
Description: Cell lines: Short-term cell lines from primary melanoma patient-derived xenografts (PDX) were generated as described (Kemper et al., EMBO Mol. Med. 7, 1104-1118, 2015) and were a gift from D. Peeper and K. Kemper. […]

[13] = biological target: T1, recombinant human isoQC (Homo sapiens, UniProt Q9NXS2); test: IsoQC assay (coupled H-Gln-AMC / pGAPase fluorescence assay); assay type: biochemical; settings: 10 μM H-Gln-AMC, 1 hour at 37° C., maximum and ten- and hundredfold lower concentrations
T1 construct: enzymatically active region of human isoQC (S53-L382, Huang et al., JBC, 286, 12439-12449, 2011); GST with enterokinase site (N, cleaved yes); made in house; host or cells: E. coli, pET41(+) vector
Description: The Golgi luminal, enzymatically active region of human isoQC (S53-L382, Huang et al., JBC, 286, 12439-12449, 2011) was obtained by expression in E. coli of an N-terminally GST-Enterokinase, C-terminally 6× His tagged construct (“6× His” disclosed as SEQ ID NO: 15) in the pET41(+) vector and subsequent purification and enterokinase digestion. Absence of pyroglutamylating activity in an enzymatic dead variant that was cloned, expressed and purified in parallel ruled out that the purification strategy isolates any endogenously present pyroglutamylating activity.
Inhibition of isoQC activity was assessed by incubating 30 μl 50 mM Tris pH8.0 solutions containing 10 μM H-Gln-AMC (Bachem cat.no. 4003647.0100, dissolved in 25 mM HEPES), 1% DMSO and 750 pg/μl recombinant isoQC in the presence or absence of inhibitor for 1 hour at 37° C. A 5-minute incubation at 98° C. followed to stop the reaction and inactivate the enzyme. Next, 25 μl of the reaction was transferred to a 384-well plate containing 25 μl pGAPase enzyme (1:200 diluted in 50 mM Tris pH8.0, 10 mM Dithiothreitol (DTT), enzyme obtained from Qiagen, cat. no. 34342) and incubated for 10 minutes at 37° C. before reading the fluorescence using a SpectraMax Id3 platereader with excitation wavenlength set at 380 nm and emission at 450 nm. Readings were corrected by subtracting background signal from a control well containing no isoQC enzyme and subsequently normalized by dividing through the signal of a well containing enzyme but no inhibitor.

[14] = system: CD47 pyroglutamylation in HAP1 cells; test: QPCTL inhibitor assay: CD47 pyroglutamylation (CC2C6 / 2D3 staining); assay type: cell-based, human; settings: 48 hours, 10-fold dilutions, maximum 500 μM
Method: An equal volume of HAP1 (200,000/well), A375 (50,000/well) or RKO (100,000/well) cells was added and QPCTL and CD47 knockout cells were taken along in control wells.
After 48 hours incubation at 37 degrees, 5% CO2, cells were washed once with PBS before releasing with 100 μl TrypIE dissociation reagent per well and transfer to V-bottom 96-well plates (Greiner Bio-One) pre-filled with 100 μl FACS buffer (10% FCS/PBS). Cells were spun 3′ at 3000 rpm, washed once with FACS buffer and again spun 3′ at 3000 rpm. Next, cells were incubated for 2 hours at 4 degrees with a mix of 1:500 FITC-conjugated anti-human CD47 clone 2D3 and 1:500 Alexa647-conjugated anti-human CD47 clone CC2C6 for the pyroglutamylation assays. Alternatively, cells were incubated with 50 μl 1:50 recombinant SIRPα-human Fc fusion protein in FACS buffer for the SIRPα assays. For the SIRPα assays, two wash steps followed by spinning 3′ at 3000 rpm and resuspending the cells in FACS buffer before spinning a final time and resuspending and incubating the pellet for 1 hour at 4 degrees in 100 μl 1:100 APC-conjugated rabbit-anti-human antibody. Cells of both assay were spun down and washed twice with FACS buffer to remove unbound antibody. Cells were again spun down and taken up in 300 μl FACS buffer before analyzed on a FACSAria III using FACS Diva software (BS Biosciences). The median fluorescence intensity (MFI) of each sample was linearly transformed to scale between the MFIs of wildtype and CD47 knockout cells in case of the 2D3 antibody and the wildtype and QPCTL knockout cells in case of the CC2C6 antibody.

T1 sequence (Q9NXS2 53-382): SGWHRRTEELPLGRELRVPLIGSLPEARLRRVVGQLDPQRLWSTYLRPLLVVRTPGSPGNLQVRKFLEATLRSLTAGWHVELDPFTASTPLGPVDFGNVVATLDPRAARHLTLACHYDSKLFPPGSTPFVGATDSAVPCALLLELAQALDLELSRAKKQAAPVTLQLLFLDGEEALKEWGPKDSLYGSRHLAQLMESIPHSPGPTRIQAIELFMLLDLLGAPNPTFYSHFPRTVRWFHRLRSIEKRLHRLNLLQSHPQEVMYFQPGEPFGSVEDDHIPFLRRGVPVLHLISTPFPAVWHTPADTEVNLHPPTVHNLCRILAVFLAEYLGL
Chain of human QPCTL (Q9NXS2 whole entry): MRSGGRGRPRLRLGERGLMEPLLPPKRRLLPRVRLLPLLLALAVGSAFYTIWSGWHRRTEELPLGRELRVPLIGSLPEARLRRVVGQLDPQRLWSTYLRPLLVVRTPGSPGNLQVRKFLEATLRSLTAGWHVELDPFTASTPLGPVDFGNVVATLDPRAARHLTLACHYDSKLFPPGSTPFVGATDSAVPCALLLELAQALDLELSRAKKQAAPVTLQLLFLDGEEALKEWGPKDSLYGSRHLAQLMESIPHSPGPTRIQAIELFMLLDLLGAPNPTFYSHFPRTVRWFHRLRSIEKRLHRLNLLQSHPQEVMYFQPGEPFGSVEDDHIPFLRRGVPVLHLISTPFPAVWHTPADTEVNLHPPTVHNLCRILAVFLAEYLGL

SMILES: COc1ccc(NC(=S)NCCCn2ccnc2)cc1OC [PBD150]
2D3 binding [1]: unchanged
CC2C6 binding [1]: decreased
SIRPα-Fc binding [1]: decreased
Ki [2]: 60 nM
CC2C6 binding after withdrawal ([3]; HAP1 cells subsequently cultured 48 hrs without PBD150): restored to normal levels
CC2C6 bound to the surface ([3]; HAP1 cells, 72 hours, PBD150 1000 microM): decreased

SMILES: CCCOc1ccc([C@H]2CNC(=O)N2c2ccc3[nH]cnc3c2)cc1 [PQ912, (S)-1-(1H-benzo[d]imidazole-5-yl)-5-(4-propoxyphenyl)imidazolidin-2-one]
safety and tolerability [4]: safe and well-tolerated
level of QPCT and QPCTL inhibition [5]: high level

SMILES: Cn1cnnc1C1CCN(c2ncccc2-c2ccc(F)nc2)CC1 [SEN177]
lysis of tumor cells by murine immune cells [6]: same effects
SIRPα binding [7]: did not further reduce
neutrophil-mediated lysis of tumor cells [8]: synergized
CD47 surface levels [9]: unaffected
SIRPα-Fc staining ([9]; 8 out of 8 cell lines tested, same extent as in QPCTL deficient cells): reduced
binding of SIRPα (mSIRPα-Fc) [10]: reduced
total CD47 surface levels [10]: without altering
pyroglutamate-modified CD47 [11]: near-complete inhibition
CD47 protein levels [12]: unaltered
Binding of SIRPα ([12]; versus untreated cells): significantly decreased

isoQC activity [13]: did show some activity
SMILES: O=C(C1=C(O)C(=O)N(c2ccc3[nH]cnc3c2)C1c1ccc(Cl)c(Cl)c1)C1CCCCC1 (centres unmarked) [compound 000015, 1-(1H-Benzoimidazol-5-yl)-4-cyclohexanecarbonyl-5-(3,4-dichloro-phenyl)-3-hydroxy-1,5-dihydro-pyrrol-2-one]
pE-CD47 signal (antibody clone CC2C6) [14]: did not show convincing reactivity

isoQC activity [13]: did show some activity
SMILES: O=C(C1=C(O)C(=O)N(c2ccc3[nH]cnc3c2)C1c1cccc(F)c1F)c1ccccc1 (centres unmarked) [compound 000033, 1-(1H-benzo[d]imidazol-5-yl)-4-benzoyl-5-(2,3-difluorophenyl)-3-hydroxy-1H-pyrrol-2(5H)-one]
pE-CD47 signal (antibody clone CC2C6) [14]: did not show convincing reactivity

isoQC activity [13]: did show some activity
SMILES: Cc1ccc(C2C(=S)NC(=O)N2c2ccc3[nH]cnc3c2)c(F)c1F (centres unmarked) [compound 000040, 1-(1H-benzo[d]imidazol-5-yl)-5-(2,3-difluoro-4-methylphenyl)-4-thioxoimidazolidin-2-one]
pE-CD47 signal (antibody clone CC2C6) [14]: did not show convincing reactivity

isoQC activity [13]: did show some activity
SMILES: Cc1ccc(C2C(c3ccc(O)cc3)=C(O)C(=O)N2CCCn2ccnc2)cc1 (centres unmarked) [compound 000046, 3-Hydroxy-4-(4-hydroxy-phenyl)-1-(3-imidazol-1-yl-propyl)-5-p-tolyl-1,5-dihydro-pyrrol-2-one]
pE-CD47 signal (antibody clone CC2C6) [14]: did not show convincing reactivity
